In patent US20080228069A1, “Novel Differential Imaging Method” (MEDIPHYSICS, INC., priority 2003, published 2008):

Tests used:
[1] = system: SK—N—SH human neuroblastoma cells; conditions: over activity range; cited from earlier work
[2] = cited from earlier work
[3] = system: myocardial uptake of ^123I mIBG; assay: ^123I mIBG imaging with and without amitryptaline; type: in vivo, human
Protocol: 4 patients with movement disorders and aged between 66 and 75 were selected for this study. Neurological examination raised the differential diagnosis between essential tremor and Parkinson's disease. Prior to the study, none of the patients was taking any medication known to interfere with mIBG uptake. In all patients two ^123I mIBG scans were performed, one of which was performed after administration of a single oral dose of 25 mg amitryptaline one hour prior to ^123I mIBG administration. The imaging protocol was carried out for both scans as described in the following paragraphs.
The patients were treated with 200-500 mg of potassium perchlorate 30 minutes before injection of ^123I mIBG. […]
Anterior planar images of the thorax were obtained at 15 minutes and at 4 hours after ^123I mIBG injection with the subject in a supine position. The gamma camera (GE Millenium) was equipped with a low-energy, parallel-hole, general purpose collimator, and a 20% energy window on 159 KeV if ^123I is used.
SPECT was performed with collection of 32 projections of 30-60 seconds each, acquired over 180° orbit, with 3°-6° angle interval in a 64×64 matrix starting in the 45° right anterior oblique projection and finishing in the 45° left posterior oblique projection.
Studies were reconstructed using a Butterworth filtered backprojection technique. Three tomographic images were obtained from the SPECT study, i.e. vertical long axis slices, short axis slices, and horizontal long axis slices. Bull's eye polar map was generated from the apical to the basal short axis slices to show relative tracer distribution in the myocardium. Reconstruction was performed without attenuation and scatter correction.
The parameters used for quantification of myocardial ^123I-mIBG activity were heart to mediastinum ratio (HMR) and myocardial washout rate (WR). […] The WR is calculated by dividing the product of […] by myocardial counts at 15 minutes and multiplying by 100. […]

NC(N)=NCc1ccc(F)c(I)c1 [^18F-FIBG]
percent binding to SK—N—SH human neuroblastoma cells [1]: remained constant over a 3-log activity range | uptake in mouse heart and adrenals [2]: Specific and high uptake

CN(C)CCC=C1c2ccccc2CCc2ccccc21 [amitryptaline]
myocardial uptake of ^123I mIBG when amitryptaline was administered before ^123I mIBG ([3]; FIG. 3, two of the four subjects, single oral dose of 25 mg amitryptaline one hour prior to ^123I mIBG): marked decrease | difference in the myocardial uptake of ^123I mIBG following administration of amitryptaline ([3]; FIG. 4, the other two subjects, single oral dose of 25 mg amitryptaline one hour prior to ^123I mIBG): no notable difference | uptake of ^123I mIBG in the stress image ([3]; half of the patients imaged (4 patients), adrenergic interfering agent amitryptaline): Reduced uptake
